Reference: patent publication US4202891A, “15-Oxygenated sterol compounds and the use of such compounds to inhibit the biosynthesis of sterols” (priority 1977, dated 1980)

Legend:
[1] = tested on: serum cholesterol; test: Effect on serum cholesterol levels in rats, daily subcutaneous injection (Examples 41, 42); type: in vivo, rat (male, Sprague-Dawley); settings: day 3
In short: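 Male Sprague-Dawley rats (110–190 g, chow-fed) received test sterols subcutaneously once daily, most at 5 mg in 0.25 ml triolein. 5α-Cholest-8(14)-en-3β-ol-15-one was given at 2 mg in 0.2 ml or 5 mg in 0.5 ml olive oil. Controls received vehicle; serum cholesterol was measured periodically, in duplicate.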

[2] = tested on: serum cholesterol; test: Serum cholesterol concentration in rats, sterol in Cholesterol Free Test Diet (Examples 43, 46); type: in vivo, rat (male, Sprague-Dawley)
Source text: (§1) Male rats of the Sprague-Dawley strain were purchased from Sprague-Dawley Farms (Madison, Wisconsin). The rats were maintained on a light (7:00 A.M.-5:30 P.M.)--dark (5:30 P.M.-7:00 A.M.) cycle and fed a Cholesterol Free Test Diet (United States Biochemical Corporation, Cleveland, Ohio) for a period of 13 days prior to the initiation of the experimental period. Six days prior to the initiation of the experimental period blood samples were taken for assay of serum cholesterol concentration and, based upon the results of these analyses, rats were divided into 3 groups with approximately the same mean serum cholesterol concentration. The rats were then individually housed in metabolic cages (Econo-Metabolism Units, Maryland Plastics, New York, New York) for 6 days prior to the initiation of the experimental period. The animals were maintained on the light-dark cycle throughout the experimental period.
Blood samples were taken from the tail vein between 8:15 A.M. and 9:30 A.M. and at no time was more than ~0.5 ml of blood removed. Serum was obtained by centrifugation of the blood using Sure-Sep Junior (General Diagnostics, Division of Warner Lambert Company, Morris Plains, New Jersey) for 20 min at 2000-2500 rpm in a table top centrifuge (Dynac, Clay Adams Model 0091). Serum cholesterol concentration was assayed by a modification of the Cholesterol Auto Test (Bio-Dynamics, BMC Division) as described in Bio-Dynamics/bmc Cholesterol Instruction (revised December, 1975).
(§2) 5α-Cholest-8(14)-en-3β-ol-15-one (500 mg), prepared and purified as described in Example 1, was added in small portions to 500 g of the Cholesterol Free Test Diet in a 2 liter glass stoppered bottle. After each addition of the sterol to the diet, the bottle was rolled and shaken thoroughly. The resulting 0.1% diet with respect to the 5α-cholest-8(14)-en-3β-ol-15-one was stored at 4° C. Prior to use in feeding, the diet was allowed to warm to room temperature (~25° C.).
(§3) 2. Ketone group--7 rats with free access to the Cholesterol Free Test Diet containing 0.1% 5α-cholest-8(14)-en-3β-ol-15-one.
(§4) Another experiment following essentially the procedure of Example 43 was performed in which the 5α-cholest-8(14)-en-3β-ol-15-one was incorporated into the Cholesterol Free Test Diet at a concentration of 0.2%.

[3] = Body weight of rats, sterol in diet; type: in vivo, rat (male, Sprague-Dawley)
Source text: as §1
The individual animals were weighed daily throughout the experimental period. Food consumption by the individual rats was similarly recorded daily. No significant spillage of the food or contamination of the food by feces or urine was possible due to the nature of the matabolic cage and the food receptacles utilized.
as §2, §3, §4

[4] = Body weight of mice, ketone in diet (Example 47); type: in vivo, mouse; settings: 0.2% in diet; eight days; 7-week-old mice
Method: […] Five mice were fed the ketone at a level of 0.2% in a diet which was essentially free of animal sterols for eight days. Five control pair-fed mice were fed the same diet to which the ketone was not added. The mean plasma cholesterol concentration in the ketone group after the eight day experiment was 35.8(±3.6, standard error of mean) mg per 100 ml of plasma while the corresponding value for the pair-fed group was 114.4 (±3.4, standard error of mean). It should be noted that very closely matched pairfeeding is difficult to perform in mice of this age due to the small amounts of food which are consumed and which must be accurately determined in such experiments.

[5] = 2 mg s.c. once a day in 0.2 ml olive oil
[6] = 5 mg s.c. once a day in 0.5 ml olive oil
[7] = 0.1% in diet, day 4, listed as Ketone
[8] = 0.1% in diet, day 8, listed as Ketone
[9] = 0.1% in diet, day 8, listed as ketone

With `CC(C)CCC[C@@H](C)[C@H]1CC(=O)C2=C3CC[C@H]4C[C@@H](O)CC[C@]4(C)[C@H]3CC[C@@]21C` [5α-Cholest-8(14)-en-3β-ol-15-one, 5α-cholest-8(14)-en-3β-ol-15-one] the “% Reduction (relative to olive oil-treated rats)” value [1, 5] was 12%, the “Serum Cholesterol (Mean ± S.E.M.)” value [1, 5] was 64.5 ± 2.5 mg per 100 ml and the “% Reduction (relative to olive oil-treated rats)” value [1, 6] was 22%. For the same compound, the “Serum Cholesterol (Mean ± S.E.M.)” value [1, 6] was 59.6 ± 2.2 mg per 100 ml, the “effect on serum cholesterol concentrations (in words)” value ([2]; 0.1% in diet) was “marked effect in lowering the serum cholesterol concentrations” and the Serum cholesterol concentration ([2]; 0.1% in diet, day 0) was 71.2 ± 0.9 mg per 100 ml. For the same compound, the Serum cholesterol concentration ([2]; 0.1% in diet, day 4) was 50.1 mg per 100 ml, the Serum cholesterol concentration [2, 7] was 50.1 ± 2.3 mg per 100 ml and the “Serum cholesterol concentration, percentage of initial levels in individual rats” value [2, 7] was 70.5 ± 3.6%. The “Serum cholesterol concentration, percentage of initial levels in individual rats” value ([2]; 0.1% in diet, day 4, listed as ketone) was 70.5%, the Serum cholesterol concentration ([2]; 0.1% in diet, day 8) was 36.9 mg per 100 ml and the Serum cholesterol concentration [2, 8] was 36.9 ± 3.3 mg per 100 ml. The “Serum cholesterol concentration, percentage of initial levels in individual rats” value [2, 8] was 51.8 ± 4.4%, the “Serum cholesterol concentration, percentage of initial levels in individual rats” value [2, 9] was 51.8% and the “effect on serum cholesterol concentration (in words)” value ([2]; 0.2% in diet) was “marked effect on the serum cholesterol concentration”. The Serum cholesterol concentration ([2]; 0.2% in diet, day 0) was 80.5 ± 2.8 mg per 100 ml, the Serum cholesterol concentration ([2]; 0.2% in diet, day 4) was 73.2 mg per 100 ml and the “Serum cholesterol levels, percentage of initial levels in individual rats” value (“Serum cholesterol levels, percentage” below) ([2]; 0.2% in diet, day 4) was 91.6 ± 4.3%. The Serum cholesterol concentration ([2]; 0.2% in diet, day 4, listed as Ketone) was 73.2 ± 3.0 mg per 100 ml, the Serum cholesterol concentration ([2]; 0.2% in diet, day 7) was 32.2 mg per 100 ml and the “Serum cholesterol levels, percentage” value ([2]; 0.2% in diet, day 7) was 40.6 ± 7.9%. For the same compound, the Serum cholesterol concentration ([2]; 0.2% in diet, day 7, listed as Ketone) was 32.2 ± 5.9 mg per 100 ml, the Serum cholesterol concentration ([2]; 0.2% in diet, day 9) was 30.3 mg per 100 ml and the “Serum cholesterol levels, percentage” value ([2]; 0.2% in diet, day 9) was 37.9 ± 8.8%. For the same compound, the Serum cholesterol concentration ([2]; 0.2% in diet, day 9, listed as Ketone) was 30.3 ± 6.2 mg per 100 ml, the Body weight ([3]; 0.1% in diet, day 0) was 130.4 ± 4.4 g and the Body weight ([3]; 0.1% in diet, day 1) was 126.6 ± 4.8 g. For the same compound, the “Percentage change in weight from initial in individual rats” value (from here on “Percentage change in weight from initial”) ([3]; 0.1% in diet, day 1) was -3.0 ± 0.7%, the Body weight ([3]; 0.1% in diet, day 2) was 121.4 ± 4.4 g and the “Percentage change in weight from initial” value ([3]; 0.1% in diet, day 2) was -7.0 ± 0.7%. The Body weight ([3]; 0.1% in diet, day 3) was 120.6 ± 4.6 g, the “Percentage change in weight from initial” value ([3]; 0.1% in diet, day 3) was -7.7 ± 0.7% and the Body weight ([3]; 0.1% in diet, day 4) was 118.5 ± 4.0 g. For the same compound, the “Percentage change in weight from initial” value ([3]; 0.1% in diet, day 4) was -9.1 ± 0.7%, the Body weight ([3]; 0.1% in diet, day 5) was 119.4 ± 4.3 g and the “Percentage change in weight from initial” value ([3]; 0.1% in diet, day 5) was -8.5 ± 0.5%. For the same compound, the Body weight ([3]; 0.1% in diet, day 6) was 118.9 ± 4.8 g, the “Percentage change in weight from initial” value ([3]; 0.1% in diet, day 6) was -8.7 ± 1.0% and the Body weight ([3]; 0.1% in diet, day 7) was 116.5 ± 4.9 g. For the same compound, the “Percentage change in weight from initial” value ([3]; 0.1% in diet, day 7) was -10.8 ± 1.3%, the “Percentage change in weight from initial” value ([3]; 0.1% in diet, day 8) was -10.2 ± 0.9% and the Body weight [3, 8] was 117.3 ± 4.7 g. It also gave a Body weight [3, 9] of 117.3 g, a Body weight ([3]; 0.2% in diet, day 0) of 152.3 ± 5.5 g and a Body weight ([3]; 0.2% in diet, day 1) of 151.3 ± 4.7 g. It also gave a Body weight ([3]; 0.2% in diet, day 2) of 145.4 ± 4.9 g, a Body weight ([3]; 0.2% in diet, day 3) of 139.0 ± 4.8 g and a Body weight ([3]; 0.2% in diet, day 4) of 137.4 ± 4.9 g. The Body weight ([3]; 0.2% in diet, day 5) was 134.5 ± 4.5 g, the Body weight ([3]; 0.2% in diet, day 6) was 130.7 ± 5.1 g and the Body weight ([3]; 0.2% in diet, day 7) was 127.7 ± 5.2 g. The Body weight ([3]; 0.2% in diet, day 8, listed as Ketone) was 122.3 ± 5.8 g, the Body weight ([3]; 0.2% in diet, day 8, listed as ketone) was 122.3 g and the “average decrease in body weight (standard error of mean)” value [4] was 5.9 g.
